This note sets out measurements from patent US20090143361A1, “Pyrido[3,2-E]Pyrazines, Process For Preparing The Same, And Their Use As Inhibitors Of Phosphodiesterase 10” (ELBION GMBH, priority 2007, published 2009).

The target of the first test is PDE10 from pig striatum (Sus scrofa, UniProt A0A287B941). Description: Inhibition of PDE10 from pig striatum ([3H]-cAMP SPA). Format: biochemical. Particulars: Table 8; read-out: PDE10 pig IC50.
On to `COc1ccc2nc(C)c3c(C)nc(-c4ccc(C)cc4)n3c2n1` [Example 59, 2-Methoxy-6,7-dimethyl-9-(4-methylphenyl)imidazo[1,5-a]pyrido[3,2-e]pyrazine], for which the IC50 (usually the concentration that inhibits the measured activity by half) fell in the range of 10 to 100 nM.
On to `COc1ccc2nc(Cl)c3c(C)nc(CCC(F)(F)F)n3c2n1` [Example 41, 6-Chloro-2-methoxy-7-methyl-9-(3,3,3-trifluoropropyl)imidazo[1,5-a]pyrido[3,2-e]pyrazine], for which the half-maximal inhibitory concentration (IC50) fell in the range of 10 to 100 nM.

In the next test the target is T1, human recombinant PDE10A (Homo sapiens, UniProt Q9Y233).
T1 construct: made in house; host or cells: SF21 insect cells (baculovirus)
T1 sequence (Q9Y233 1-779 isoform Q9Y233-1): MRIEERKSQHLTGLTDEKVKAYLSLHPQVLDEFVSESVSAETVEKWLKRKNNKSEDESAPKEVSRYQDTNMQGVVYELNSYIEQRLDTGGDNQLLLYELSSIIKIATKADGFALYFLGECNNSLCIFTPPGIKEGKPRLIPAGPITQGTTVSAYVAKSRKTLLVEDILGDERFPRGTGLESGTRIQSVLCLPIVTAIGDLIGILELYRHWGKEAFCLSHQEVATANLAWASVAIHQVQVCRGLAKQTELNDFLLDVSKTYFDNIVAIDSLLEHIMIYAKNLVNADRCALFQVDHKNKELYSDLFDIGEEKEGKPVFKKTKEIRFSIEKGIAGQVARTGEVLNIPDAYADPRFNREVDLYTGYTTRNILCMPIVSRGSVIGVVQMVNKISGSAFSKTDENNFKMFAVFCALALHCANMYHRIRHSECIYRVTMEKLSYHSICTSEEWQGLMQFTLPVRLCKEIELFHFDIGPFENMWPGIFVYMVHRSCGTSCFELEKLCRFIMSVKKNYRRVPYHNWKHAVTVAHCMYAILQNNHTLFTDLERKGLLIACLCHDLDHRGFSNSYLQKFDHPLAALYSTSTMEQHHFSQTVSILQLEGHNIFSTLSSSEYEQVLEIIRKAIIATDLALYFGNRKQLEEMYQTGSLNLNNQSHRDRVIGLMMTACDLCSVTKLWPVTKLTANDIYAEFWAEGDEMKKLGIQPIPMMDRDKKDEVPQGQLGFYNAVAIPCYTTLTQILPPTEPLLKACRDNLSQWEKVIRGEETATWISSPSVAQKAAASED
Briefly: Inhibition of PDE10, human recombinant PDE10A ([3H]-cAMP SPA). Format: biochemical. The settings on record: Table 7; read-out: Human PDE10 (IC50 nM). The procedure: The gene was than inserted into a baculovirus vector, ligated with the baculovirus DNA. The enzyme-protein was expressed in SF21-cells. The enzyme was isolated from these cells by harvesting the cells by a centrifugation at 200 g to collect the cells. The cells were resuspended in 50 mM Tris-HCl/5 mM MgCl2 buffer (pH=7.4) and lysed by a sonication of the cells. The cytosolic PDE10A was obtained by a centrifugation at 48000 g for 1 h in the supernatant and stored at −70° C. PDE10 activity was determined in a one step procedure in microtiterplates. […] Nonspecific activity was tested without the enzyme. The reaction was initiated by addition of the substrate solution and was carried out at 37° C. for 30 minutes. Enzymatic activity was stopped by addition of 25 μl YSi-SPA-beads (Amersham-Pharmacia). One hour later the mixture was measured in a liquid scintillation counter for microtiterplates (Microbeta Trilux). To pipette the incubation mixture a robot Biomek (Fa. Beckman) is used. […] For determination of IC50 values the Hill-plot, 2-parameter-model, was used.
`COc1ccc2nc(NS(C)(=O)=O)c3c(C(F)(F)F)nc(-c4ccccc4C)n3c2n1` [Example 39, N-[2-Methoxy-9-(2-methylphenyl)-7-(trifluoromethyl)imidazo[1,5-a]pyrido[3,2-e]pyrazin-6-yl]methanesulfonamide]: the IC50 is below 10 nM.
Take `COc1ccc2nc(C#N)c3c(C)nc(-c4cc(Cl)ccc4Cl)n3c2n1` [Example 40, 9-(2,5-Dichlorophenyl)-2-methoxy-7-methylimidazo[1,5-a]pyrido[3,2-e]pyrazine-6-carbonitrile]: the IC50 was 10 to 100 nM.
With `COc1ccc2nc(C)c3c(C)nc(-c4ccc(Cl)cc4F)n3c2n1` [Example 17, 9-(4-Chloro-2-fluorophenyl)-2-methoxy-6,7-dimethylimidazo[1,5-a]pyrido[3,2-e]pyrazine], the IC50 lay within 10 to 100 nM.

Staying with this test, now noted: Table 8, cell marked Human PDE10; read-out: IC50 (nM) (Human PDE10).
For `CCCc1nc(C)c2c(C)nc3ccc(=O)[nH]c3n12` [Example 46, 6,7-Dimethyl-9-propylimidazo[1,5-a]pyrido[3,2-e]pyrazin-2(1H)-one], the IC50 was above 100 nM.

Staying with this test, now noted: Table 9; read-out: hPDE10 IC50.
In the case of `Cc1ccccc1-c1nc(C)c2c(C)nc3ccc(OCCF)nc3n12` [Example 154, 2-(2-fluoroethoxy)-6,7-dimethyl-9-(2-methylphenyl)imidazo[1,5-a]pyrido[3,2-e]pyrazine], the IC50 is below 10 nM.
Consider `Cc1nc(F)ccc1-c1nc(C)c2c(C)nc3ccc(OCC4CC4)nc3n12` [Example 141, 2-(cyclopropylmethoxy)-9-(6-fluoro-2-methylpyridin-3-yl)-6,7-dimethylimidazo[1,5-a]pyrido[3,2-e]pyrazine], for which the IC50 was below 10 nM.
Regarding `Cc1nc(-c2cc(C(N)=O)ccc2F)n2c1c(C)nc1ccc(OCC3CC3)nc12` [Example 151, 3-[2-(cyclopropylmethoxy)-6,7-dimethylimidazo[1,5-a]pyrido[3,2-e]pyrazin-9-yl]-4-fluorobenzamide], the IC50 is below 10 nM.
Consider `COc1ccc2nc(C)c3c(C)nc(-c4ccc(F)c(C(N)=O)c4)n3c2n1` [Example 130, 2-fluoro-5-(2-methoxy-6,7-dimethylimidazo[1,5-a]pyrido[3,2-e]pyrazin-9-yl)benzamide], for which the IC50 is below 10 nM.
Turning to `COc1ccc2nc(C)c3c(C)nc(-c4cnn(CCN5CCOCC5)c4)n3c2n1` [Example 190, 2-methoxy-6,7-dimethyl-9-[1-(2-morpholin-4-ylethyl)-1H-pyrazol-4-yl]imidazo[1,5-a]pyrido[3,2-e]pyrazine], the IC50 was above 100 nM.
Same read-out and setting: the value for `CCCn1cc(-c2nc(C)c3c(C)nc4ccc(OC)nc4n23)cn1` [Example 189, 2-methoxy-6,7-dimethyl-9-(1-propyl-1H-pyrazol-4-yl)imidazo[1,5-a]pyrido[3,2-e]pyrazine] was above 100 nM; that for `Cc1cc(C(N)=O)ccc1-c1nc(C)c2c(C)nc3ccc(OCC4CC4)nc3n12` [Example 150, 4-[2-(cyclopropylmethoxy)-6,7-dimethylimidazo[1,5-a]pyrido[3,2-e]pyrazin-9-yl]-3-methylbenzamide] was below 10 nM.
On the same count and under the same terms, the value for `Cc1nc(-c2cc(F)cc(C(N)=O)c2)n2c1c(C)nc1ccc(OCC3CC3)nc12` [Example 145, 3-[2-(cyclopropylmethoxy)-6,7-dimethylimidazo[1,5-a]pyrido[3,2-e]pyrazin-9-yl]-5-fluorobenzamide] was below 10 nM; that for `COc1ccc2nc(C)c3c(C)nc(-c4cccnc4F)n3c2n1` [Example 175, 9-(2-fluoropyridin-3-yl)-2-methoxy-6,7-dimethylimidazo[1,5-a]pyrido[3,2-e]pyrazine] was below 10 nM; that for `Cc1nc(-c2ccc(F)cc2Cl)n2c1c(C)nc1ccc(OCC3CC3)nc12` [Example 138, 9-(2-chloro-4-fluorophenyl)-2-(cyclopropylmethoxy)-6,7-dimethylimidazo[1,5-a]pyrido[3,2-e]pyrazine] was below 10 nM.
For the compound `COc1ccc2nc(C)c3c(C)nc(-c4ccc(N5CCOCC5)nc4)n3c2n1` [Example 187, 2-methoxy-6,7-dimethyl-9-(6-morpholin-4-ylpyridin-3-yl)imidazo[1,5-a]pyrido[3,2-e]pyrazine], the IC50 is above 100 nM.
For `COc1ccc2nc(C)c3c(C)nc(-c4cc(F)cc(C(N)=O)c4)n3c2n1` [Example 129, 3-fluoro-5-(2-methoxy-6,7-dimethylimidazo[1,5-a]pyrido[3,2-e]pyrazin-9-yl)benzamide], the IC50 was below 10 nM.
For `COc1ccc2nc(C)c3c(C)nc(-c4cnn(C)c4)n3c2n1` [Example 180, 2-methoxy-6,7-dimethyl-9-(1-methyl-1H-pyrazol-4-yl)imidazo[1,5-a]pyrido[3,2-e]pyrazine], the IC50 fell in the range of 10 to 100 nM.
For the compound `COc1ccc2nc(C#N)c3c(C)nc(-c4cc(C(N)=O)ccc4F)n3c2n1` [Example 166, 3-(6-cyano-2-methoxy-7-methylimidazo[1,5-a]pyrido[3,2-e]pyrazin-9-yl)-4-fluorobenzamide], the IC50 was below 10 nM.
`COc1ccc2nc(C)c3c(C)nc(-c4ccncc4OC)n3c2n1` [Example 161, 2-Methoxy-9-(3-methoxypyridin-4-yl)-6,7-dimethylimidazo[1,5-a]pyrido[3,2-e]pyrazine]: the IC50 was in the range of 10 to 100 nM.
In the case of `COc1ccc2nc(C#N)c3c(C)nc(-c4ccccc4C)n3c2n1` [Example 165, 2-methoxy-7-methyl-9-(2-methylphenyl)imidazo[1,5-a]pyrido[3,2-e]pyrazine-6-carbonitrile], the IC50 was 10 to 100 nM.
In the case of `COc1ccc2nc(C)c3c(C)nc(-c4cc[nH]c4)n3c2n1` [Example 181, 2-methoxy-6,7-dimethyl-9-(1H-pyrrol-3-yl)imidazo[1,5-a]pyrido[3,2-e]pyrazine], the IC50 lay in the range of 10 to 100 nM.
For the compound `Cc1cc(C(=O)O)ccc1-c1nc(C)c2c(C)nc3ccc(OCC4CC4)nc3n12` [Example 147, 4-[2-(cyclopropylmethoxy)-6,7-dimethylimidazo[1,5-a]pyrido[3,2-e]pyrazin-9-yl]-3-methylbenzoic acid], the IC50 is above 100 nM.
Regarding `Cc1cc(F)ccc1-c1nc(C)c2c(C)nc3ccc(OCC4CC4)nc3n12` [Example 135, 2-(cyclopropylmethoxy)-9-(4-fluoro-2-methylphenyl)-6,7-dimethylimidazo[1,5-a]pyrido[3,2-e]pyrazine], the IC50 lay within 10 to 100 nM.
On to `COc1ccc2nc(C#N)c3c(C)nc(-c4cccc(C(N)=O)c4)n3c2n1` [Example 167, 3-(6-cyano-2-methoxy-7-methylimidazo[1,5-a]pyrido[3,2-e]pyrazin-9-yl)benzamide], for which the IC50 was 10 to 100 nM.
For the compound `COc1ccc2nc(C)c3c(C)nc(-c4cccc(N5CCOCC5)c4)n3c2n1` [Example 188, 2-methoxy-6,7-dimethyl-9-(3-morpholin-4-ylphenyl)imidazo[1,5-a]pyrido[3,2-e]pyrazine], the IC50 is above 100 nM.
On to `Cc1ccccc1-c1nc(C)c2c(C)nc3ccc(OCc4ccncc4)nc3n12` [Example 158, 6,7-dimethyl-9-(2-methylphenyl)-2-(pyridin-4-ylmethoxy)imidazo[1,5-a]pyrido[3,2-e]pyrazine], for which the IC50 was below 10 nM.
Still for that read-out and setting: the value for `Cc1ccccc1-c1nc(C)c2c(C)nc3ccc(OCC(F)(F)F)nc3n12` [Example 155] was 10 to 100 nM; that for `COc1ccc2nc(C)c3c(C)nc(-c4ccc(C(N)=O)c(Cl)c4)n3c2n1` [Example 132, 2-chloro-4-(2-methoxy-6,7-dimethylimidazo[1,5-a]pyrido[3,2-e]pyrazin-9-yl)benzamide] was below 10 nM; that for `Cc1ccncc1-c1nc(C)c2c(C)nc3ccc(OCC4CC4)nc3n12` [Example 140, 2-(cyclopropylmethoxy)-6,7-dimethyl-9-(4-methylpyridin-3-yl)imidazo[1,5-a]pyrido[3,2-e]pyrazine] was 10 to 100 nM.
For `COc1ccc2nc(C)c3c(C)nc(-c4cnn(CC(C)C)c4)n3c2n1` [Example 182, 2-methoxy-6,7-dimethyl-9-[1-(2-methylpropyl)-1H-pyrazol-4-yl]imidazo[1,5-yl}imidazo[1,5-a]pyrido[3,2-e]pyrazine], the IC50 was above 100 nM.
In the case of `Cc1nc(-c2ccc(Cl)cc2C(F)(F)F)n2c1c(C)nc1ccc(OCC3CC3)nc12` [Example 137, 9-[4-chloro-2-(trifluoromethyl)phenyl]-2-(cyclopropylmethoxy)-6,7-dimethylimidazo[1,5-a]pyrido[3,2-e]pyrazine], the IC50 is 10 to 100 nM.
The same measure, in the same setting: under `Cc1nc(-c2ccc(C(N)=O)cc2)n2c1c(C)nc1ccc(OCC3CC3)nc12` [Example 142, 4-[2-(cyclopropylmethoxy)-6,7-dimethylimidazo[1,5-a]pyrido[3,2-e]pyrazin-9-yl]benzamide] stands below 10 nM.
As for `Cc1ccccc1-c1nc(C)c2c(C)nc3ccc(OCC(F)F)nc3n12` [Example 153, 2-(2,2-difluoroethoxy)-6,7-dimethyl-9-(2-methylphenyl)imidazo[1,5-a]pyrido[3,2-e]pyrazine], the IC50 is below 10 nM.
